Laboratory results taken from ChEMBL document CHEMBL5653615 (J Biol Chem, 2013).

Tests used:
[1] = target: T1, Inhibitor of nuclear factor kappa-B kinase subunit epsilon (Homo sapiens) (UniProt Q14164); test: Inhibition of human IKKe at 18.6 nM by HotSpot assay relative to control
T1 sequence (whole entry): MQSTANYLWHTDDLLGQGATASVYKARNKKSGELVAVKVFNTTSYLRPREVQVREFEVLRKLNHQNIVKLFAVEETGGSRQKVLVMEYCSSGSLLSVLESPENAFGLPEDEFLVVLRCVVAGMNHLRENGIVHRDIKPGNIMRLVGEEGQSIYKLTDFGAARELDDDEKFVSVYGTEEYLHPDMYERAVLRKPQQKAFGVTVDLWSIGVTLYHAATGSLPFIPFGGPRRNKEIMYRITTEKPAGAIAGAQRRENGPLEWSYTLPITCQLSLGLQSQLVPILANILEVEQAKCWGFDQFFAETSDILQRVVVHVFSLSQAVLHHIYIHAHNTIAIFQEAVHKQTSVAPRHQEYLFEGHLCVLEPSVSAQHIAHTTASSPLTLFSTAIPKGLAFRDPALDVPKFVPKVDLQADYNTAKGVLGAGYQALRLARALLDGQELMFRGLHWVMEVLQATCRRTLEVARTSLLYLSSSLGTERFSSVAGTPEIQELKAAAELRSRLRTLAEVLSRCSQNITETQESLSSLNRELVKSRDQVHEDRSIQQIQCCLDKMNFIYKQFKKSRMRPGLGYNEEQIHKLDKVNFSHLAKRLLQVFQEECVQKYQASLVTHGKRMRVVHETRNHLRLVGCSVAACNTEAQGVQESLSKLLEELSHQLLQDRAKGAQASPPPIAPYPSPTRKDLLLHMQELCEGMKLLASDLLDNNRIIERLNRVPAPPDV

[2] = target: T2, Beta-adrenergic receptor kinase 1 (Homo sapiens) (UniProt P25098); test: Inhibition of human GRK2 at 18.6 nM by HotSpot assay relative to control
T2 sequence (whole entry): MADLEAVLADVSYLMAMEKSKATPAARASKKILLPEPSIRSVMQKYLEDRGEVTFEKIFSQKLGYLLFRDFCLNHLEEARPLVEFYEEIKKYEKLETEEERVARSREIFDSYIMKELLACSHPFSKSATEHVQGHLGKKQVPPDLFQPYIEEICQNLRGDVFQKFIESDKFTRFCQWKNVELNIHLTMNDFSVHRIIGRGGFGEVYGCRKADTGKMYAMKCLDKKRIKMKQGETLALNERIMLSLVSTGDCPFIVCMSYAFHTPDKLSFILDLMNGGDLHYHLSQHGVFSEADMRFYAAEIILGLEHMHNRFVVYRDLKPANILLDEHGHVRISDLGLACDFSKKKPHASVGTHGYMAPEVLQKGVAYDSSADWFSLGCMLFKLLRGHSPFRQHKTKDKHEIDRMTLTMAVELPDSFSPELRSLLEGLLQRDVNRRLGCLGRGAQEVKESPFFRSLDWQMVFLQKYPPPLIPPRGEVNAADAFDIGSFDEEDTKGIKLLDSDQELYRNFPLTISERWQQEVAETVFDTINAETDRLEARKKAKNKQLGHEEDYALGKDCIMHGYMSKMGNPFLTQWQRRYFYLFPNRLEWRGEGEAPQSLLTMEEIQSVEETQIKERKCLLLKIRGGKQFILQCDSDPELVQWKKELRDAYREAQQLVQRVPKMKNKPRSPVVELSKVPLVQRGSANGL

[3] = target: T3, Serine/threonine-protein kinase BRSK1 (Homo sapiens) (UniProt Q8TDC3); test: Inhibition of human BRSK1 at 18.6 nM by HotSpot assay relative to control
T3 sequence (whole entry): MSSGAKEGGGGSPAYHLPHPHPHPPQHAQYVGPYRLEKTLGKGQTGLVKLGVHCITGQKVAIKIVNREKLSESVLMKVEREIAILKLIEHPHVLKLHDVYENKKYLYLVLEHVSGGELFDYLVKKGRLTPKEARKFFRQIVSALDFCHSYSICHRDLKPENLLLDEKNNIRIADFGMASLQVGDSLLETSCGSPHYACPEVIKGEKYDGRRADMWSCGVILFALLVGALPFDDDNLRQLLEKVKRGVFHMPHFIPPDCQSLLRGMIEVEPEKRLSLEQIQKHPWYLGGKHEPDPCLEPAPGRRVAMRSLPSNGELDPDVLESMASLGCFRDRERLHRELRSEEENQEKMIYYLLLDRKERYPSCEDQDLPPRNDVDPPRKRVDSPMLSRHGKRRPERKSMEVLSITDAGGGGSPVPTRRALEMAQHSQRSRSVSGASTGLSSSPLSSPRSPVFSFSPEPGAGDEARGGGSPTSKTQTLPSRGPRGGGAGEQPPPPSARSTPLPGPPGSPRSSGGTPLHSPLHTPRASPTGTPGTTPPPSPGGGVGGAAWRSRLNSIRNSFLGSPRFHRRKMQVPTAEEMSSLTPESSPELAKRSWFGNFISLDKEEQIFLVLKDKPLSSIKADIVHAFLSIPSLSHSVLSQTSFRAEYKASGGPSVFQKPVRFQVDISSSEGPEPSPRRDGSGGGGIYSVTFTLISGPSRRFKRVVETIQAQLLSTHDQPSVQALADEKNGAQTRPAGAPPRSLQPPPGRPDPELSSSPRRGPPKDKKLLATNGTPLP

[4] = target: Cyclin-dependent kinase 1/cyclin B1 (Homo sapiens) (UniProt P06493+P14635); test: Inhibition of human CDK1/cyclin B at 18.6 nM by HotSpot assay relative to control; type: protein-complex assay
[5] = target: Dual specificity tyrosine-phosphorylation-regulated kinase 1A (Homo sapiens) (UniProt Q13627); test: Inhibition of human DYRK1 at 1.82 nM by HotSpot assay relative to control
[6] = target: T4, TGF-beta receptor type-1 (Homo sapiens) (UniProt P36897); test: Inhibition of human ALK5 at 1.82 nM by HotSpot assay relative to control
T4 sequence (whole entry): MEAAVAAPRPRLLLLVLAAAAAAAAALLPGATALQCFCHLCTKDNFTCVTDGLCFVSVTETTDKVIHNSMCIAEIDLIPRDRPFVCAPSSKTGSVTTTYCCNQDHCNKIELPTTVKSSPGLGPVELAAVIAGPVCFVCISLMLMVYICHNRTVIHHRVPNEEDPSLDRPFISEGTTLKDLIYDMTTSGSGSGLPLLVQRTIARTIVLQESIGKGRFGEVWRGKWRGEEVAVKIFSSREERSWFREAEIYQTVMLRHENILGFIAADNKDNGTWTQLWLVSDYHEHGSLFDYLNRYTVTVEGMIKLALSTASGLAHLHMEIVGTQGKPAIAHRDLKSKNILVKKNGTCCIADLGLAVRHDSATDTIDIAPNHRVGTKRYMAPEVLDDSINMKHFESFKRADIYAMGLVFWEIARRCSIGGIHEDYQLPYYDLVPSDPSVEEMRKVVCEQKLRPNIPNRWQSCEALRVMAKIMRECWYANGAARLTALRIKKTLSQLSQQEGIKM

[7] = target: Serine/threonine-protein kinase pim-2 (Homo sapiens) (UniProt Q9P1W9); test: Inhibition of human PIM2 at 500 nM by HotSpot assay relative to control
Chain of Serine/threonine-protein kinase pim-2 (Homo sapiens) (Q9P1W9 whole entry, looked up): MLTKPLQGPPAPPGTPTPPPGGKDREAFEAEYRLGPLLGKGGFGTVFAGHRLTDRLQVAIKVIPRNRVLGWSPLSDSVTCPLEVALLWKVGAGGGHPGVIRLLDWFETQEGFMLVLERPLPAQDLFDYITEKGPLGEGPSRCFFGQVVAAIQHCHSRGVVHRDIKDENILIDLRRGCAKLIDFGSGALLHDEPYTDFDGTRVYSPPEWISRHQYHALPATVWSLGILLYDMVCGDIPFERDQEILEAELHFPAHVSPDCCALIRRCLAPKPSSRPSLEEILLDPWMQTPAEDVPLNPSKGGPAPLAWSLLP

Chain of Cyclin-dependent kinase 1/cyclin B1 (Homo sapiens) (P06493 whole entry, looked up): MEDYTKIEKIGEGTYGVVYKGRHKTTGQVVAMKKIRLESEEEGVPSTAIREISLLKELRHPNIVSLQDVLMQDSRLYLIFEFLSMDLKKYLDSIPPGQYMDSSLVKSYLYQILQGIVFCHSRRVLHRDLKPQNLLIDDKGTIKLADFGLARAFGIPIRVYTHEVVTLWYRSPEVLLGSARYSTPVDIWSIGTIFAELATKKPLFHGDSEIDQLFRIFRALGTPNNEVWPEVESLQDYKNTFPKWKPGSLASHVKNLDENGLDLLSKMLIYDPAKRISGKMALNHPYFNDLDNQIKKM
Chain of Cyclin-dependent kinase 1/cyclin B1 (Homo sapiens) (P14635 whole entry, looked up): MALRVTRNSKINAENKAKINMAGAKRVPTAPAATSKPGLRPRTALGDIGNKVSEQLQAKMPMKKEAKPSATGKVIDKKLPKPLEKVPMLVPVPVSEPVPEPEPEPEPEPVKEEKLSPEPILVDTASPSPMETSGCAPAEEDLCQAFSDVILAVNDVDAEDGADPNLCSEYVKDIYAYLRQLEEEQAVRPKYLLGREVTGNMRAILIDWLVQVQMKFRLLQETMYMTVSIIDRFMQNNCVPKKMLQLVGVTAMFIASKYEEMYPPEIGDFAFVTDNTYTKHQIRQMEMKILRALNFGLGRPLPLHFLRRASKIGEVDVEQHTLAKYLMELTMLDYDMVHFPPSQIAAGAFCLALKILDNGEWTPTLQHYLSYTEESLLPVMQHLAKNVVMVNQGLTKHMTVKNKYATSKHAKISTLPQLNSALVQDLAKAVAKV

C[C@]1(O)C[C@@H](c2nc(-c3ccc4ccc(-c5ccccc5)nc4c3)c3c(N)nccn32)C1
inhibition [1]: 3.19% | inhibition [2]: -1% | inhibition [3]: -2.86% | inhibition [4]: 1.65%

C[C@@]1(C(=O)Nc2ccc(F)nc2)CCCN1c1nc(Nc2cc(C3CC3)n[nH]2)c2cccn2n1
inhibition [5]: -3.18% | inhibition [6]: -0.63%

Nc1n[nH]c2nnc(-c3c(-c4ccccc4)nn4ccccc34)cc12
inhibition [7]: 8.35%
